Results reported in article PMC7033671 (ACS Omega, 2020).

What was measured:
KCL22 = test: CellTiter-Blue cell viability, KCL22; type: cell-based, human; conditions: for IC50: Homo sapiens, KCL-22, 72 h, read-out: IC50 against KCL22
K562 = test: CellTiter-Blue cell viability, K562; type: cell-based, human; conditions: for IC50: Homo sapiens, K562, 72 h, read-out: IC50 against K562
KCL22-IR = test: CellTiter-Blue cell viability, KCL22-IR; type: cell-based, human; conditions: for IC50: Homo sapiens, 72 h, read-out: IC50 against KCL22-IR
FLT3 (ITD) = molecular target: T1, FLT3 (ITD) (Homo sapiens, UniProt P36888, ITD); test: Reaction Biology 33P-ATP kinase assay, FLT3; conditions: read-out: inhibition against FLT3(ITD)
T1 sequence (P36888 564-993): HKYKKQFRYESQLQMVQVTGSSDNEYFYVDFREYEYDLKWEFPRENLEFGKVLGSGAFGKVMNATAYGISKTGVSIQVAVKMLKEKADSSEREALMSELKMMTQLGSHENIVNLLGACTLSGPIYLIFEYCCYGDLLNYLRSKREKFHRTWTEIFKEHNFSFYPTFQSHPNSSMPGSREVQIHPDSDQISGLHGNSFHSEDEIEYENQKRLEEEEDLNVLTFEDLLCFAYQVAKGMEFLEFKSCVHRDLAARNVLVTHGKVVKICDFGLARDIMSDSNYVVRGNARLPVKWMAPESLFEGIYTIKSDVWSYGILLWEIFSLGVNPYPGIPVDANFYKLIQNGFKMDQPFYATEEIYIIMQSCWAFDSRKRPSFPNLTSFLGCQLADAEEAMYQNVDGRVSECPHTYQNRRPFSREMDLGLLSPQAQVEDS

ABL1 (T315I) = ABL1 (T315I) (Homo sapiens, UniProt P00519, T315I); test: Reaction Biology 33P-ATP kinase assay, ABL1; conditions: read-out: inhibition against ABL1(T315I)
MNK2 = MNK2 (Homo sapiens, UniProt Q9HBH9); test: biochemical; conditions: read-out: inhibition of MNK2
Sequence of MNK2 (Q9HBH9 whole entry): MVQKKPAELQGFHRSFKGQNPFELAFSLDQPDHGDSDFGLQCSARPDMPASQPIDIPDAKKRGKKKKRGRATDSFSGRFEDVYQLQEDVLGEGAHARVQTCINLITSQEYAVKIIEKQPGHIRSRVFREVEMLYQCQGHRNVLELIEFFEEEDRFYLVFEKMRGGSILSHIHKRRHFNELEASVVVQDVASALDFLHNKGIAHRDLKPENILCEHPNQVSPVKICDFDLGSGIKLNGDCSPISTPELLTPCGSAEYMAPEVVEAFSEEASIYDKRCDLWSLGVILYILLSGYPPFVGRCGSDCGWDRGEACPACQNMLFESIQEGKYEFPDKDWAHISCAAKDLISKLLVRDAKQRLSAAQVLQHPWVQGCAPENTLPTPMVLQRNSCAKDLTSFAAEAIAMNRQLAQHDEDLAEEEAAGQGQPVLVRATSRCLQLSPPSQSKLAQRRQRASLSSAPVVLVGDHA

c-SRC = c-SRC (Homo sapiens, UniProt P12931); test: Reaction Biology 33P-ATP kinase assay, c-SRC; conditions: read-out: inhibition against c-Src
Sequence of c-SRC (P12931 whole entry): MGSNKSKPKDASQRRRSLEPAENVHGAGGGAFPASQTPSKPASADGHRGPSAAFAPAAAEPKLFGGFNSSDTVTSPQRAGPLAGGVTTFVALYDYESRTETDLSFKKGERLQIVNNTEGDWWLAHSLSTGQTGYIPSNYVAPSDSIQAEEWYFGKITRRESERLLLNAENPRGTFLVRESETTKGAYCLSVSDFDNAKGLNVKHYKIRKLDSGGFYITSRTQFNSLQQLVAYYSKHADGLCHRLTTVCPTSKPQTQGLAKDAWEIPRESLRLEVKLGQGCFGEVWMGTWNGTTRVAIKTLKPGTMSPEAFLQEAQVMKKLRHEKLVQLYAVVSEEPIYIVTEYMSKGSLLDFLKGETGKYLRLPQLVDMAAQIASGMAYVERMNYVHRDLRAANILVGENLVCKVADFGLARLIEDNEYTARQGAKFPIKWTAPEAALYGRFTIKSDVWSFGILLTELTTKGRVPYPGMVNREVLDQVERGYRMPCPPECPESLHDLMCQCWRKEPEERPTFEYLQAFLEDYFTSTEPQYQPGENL

MOLM14 = test: CellTiter-Blue cell viability, MOLM14; type: cell-based; conditions: Homo sapiens, MOLM-14, 72 h, read-out: IC50 against MOLM14
FLT3 (D835Y) = molecular target: T2, FLT3 (D835Y) (Homo sapiens, UniProt P36888, D835Y); test: Reaction Biology 33P-ATP kinase assay, FLT3; conditions: read-out: inhibition against FLT3(D835Y)
T2 sequence (P36888 27-993 D835Y): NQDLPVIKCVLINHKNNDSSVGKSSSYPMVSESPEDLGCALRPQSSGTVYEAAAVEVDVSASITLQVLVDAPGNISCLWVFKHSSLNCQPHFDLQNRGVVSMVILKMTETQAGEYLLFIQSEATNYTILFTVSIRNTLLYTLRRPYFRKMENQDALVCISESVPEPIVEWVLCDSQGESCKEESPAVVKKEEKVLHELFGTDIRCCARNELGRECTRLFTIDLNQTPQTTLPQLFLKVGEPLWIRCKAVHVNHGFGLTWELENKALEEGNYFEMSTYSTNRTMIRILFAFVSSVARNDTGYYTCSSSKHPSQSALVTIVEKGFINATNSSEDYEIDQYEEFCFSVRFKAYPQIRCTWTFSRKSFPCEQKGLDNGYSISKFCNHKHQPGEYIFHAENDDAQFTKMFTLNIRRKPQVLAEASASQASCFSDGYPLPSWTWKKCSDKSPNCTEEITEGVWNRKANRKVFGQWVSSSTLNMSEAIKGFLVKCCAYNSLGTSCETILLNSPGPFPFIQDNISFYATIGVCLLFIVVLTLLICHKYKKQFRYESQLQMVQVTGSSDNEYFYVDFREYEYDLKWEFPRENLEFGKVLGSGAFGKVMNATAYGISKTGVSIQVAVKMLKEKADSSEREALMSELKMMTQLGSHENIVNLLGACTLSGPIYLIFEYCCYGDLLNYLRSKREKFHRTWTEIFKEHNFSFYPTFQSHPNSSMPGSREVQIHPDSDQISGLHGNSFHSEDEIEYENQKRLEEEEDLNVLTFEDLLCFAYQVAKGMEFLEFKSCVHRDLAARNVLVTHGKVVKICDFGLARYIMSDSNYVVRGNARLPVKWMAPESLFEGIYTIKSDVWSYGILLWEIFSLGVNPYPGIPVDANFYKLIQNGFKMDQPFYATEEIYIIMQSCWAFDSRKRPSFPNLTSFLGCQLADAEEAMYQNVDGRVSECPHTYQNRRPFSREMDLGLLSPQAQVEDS

c-Kit = c-Kit (Homo sapiens, UniProt P10721); test: Reaction Biology 33P-ATP kinase assay, c-Kit; type: biochemical
Sequence of c-Kit (P10721 26-976): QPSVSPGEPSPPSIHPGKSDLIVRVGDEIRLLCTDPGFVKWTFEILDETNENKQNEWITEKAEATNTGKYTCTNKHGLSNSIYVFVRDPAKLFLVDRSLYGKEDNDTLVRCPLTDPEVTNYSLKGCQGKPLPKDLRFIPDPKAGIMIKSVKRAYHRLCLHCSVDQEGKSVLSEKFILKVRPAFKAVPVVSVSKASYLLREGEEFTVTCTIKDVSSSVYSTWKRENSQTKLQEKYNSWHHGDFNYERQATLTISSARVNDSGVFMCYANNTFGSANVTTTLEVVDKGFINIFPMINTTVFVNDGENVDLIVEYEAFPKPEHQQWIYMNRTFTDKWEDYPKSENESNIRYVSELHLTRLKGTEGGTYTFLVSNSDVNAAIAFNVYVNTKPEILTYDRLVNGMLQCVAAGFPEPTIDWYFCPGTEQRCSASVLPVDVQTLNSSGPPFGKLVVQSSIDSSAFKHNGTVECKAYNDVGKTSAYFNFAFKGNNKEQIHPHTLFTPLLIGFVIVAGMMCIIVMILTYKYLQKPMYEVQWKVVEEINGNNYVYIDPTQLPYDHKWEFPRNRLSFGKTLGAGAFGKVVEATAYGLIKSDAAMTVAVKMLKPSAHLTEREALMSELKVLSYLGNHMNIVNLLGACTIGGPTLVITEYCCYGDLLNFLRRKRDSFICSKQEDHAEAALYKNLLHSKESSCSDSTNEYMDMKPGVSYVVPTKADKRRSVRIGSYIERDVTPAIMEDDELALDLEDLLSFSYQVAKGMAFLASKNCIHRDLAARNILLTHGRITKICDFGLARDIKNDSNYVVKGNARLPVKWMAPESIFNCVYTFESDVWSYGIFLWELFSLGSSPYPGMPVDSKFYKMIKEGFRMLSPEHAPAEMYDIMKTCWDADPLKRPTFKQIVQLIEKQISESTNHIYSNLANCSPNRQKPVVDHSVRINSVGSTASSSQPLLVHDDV

LC2/Ad = test: CellTiter-Blue cell viability, LC2/Ad; type: cell-based; conditions: Homo sapiens, LC-2-ad, 72 h, read-out: IC50 against LC2/Ad
MV-4-11 = test: CellTiter-Blue cell viability, MV-4-11; type: cell-based; conditions: Homo sapiens, MV4-11, 72 h, read-out: IC50 against MV-4-11
MOLM13-res = test: CellTiter-Blue cell viability, MOLM13-res; type: cell-based; conditions: Homo sapiens, 72 h, read-out: IC50 against MOLM13-res
MOLM14-D835Y = test: CellTiter-Blue cell viability, MOLM14-D835Y; type: cell-based; conditions: Homo sapiens, 72 h, read-out: IC50 against MOLM14-D835Y
H520 = test: CellTiter-Blue cell viability, H520; type: cell-based; conditions: Homo sapiens, NCI-H520, 72 h, read-out: IC50 against H520
MOLM14-F691L = test: CellTiter-Blue cell viability, MOLM14-F691L; type: cell-based; conditions: Homo sapiens, MOLM-14, 72 h, read-out: IC50 against MOLM14-F691L

IC50 (K562) [nM] | SMILES | IC50 (KCL22) [nM] | IC50 (KCL22-IR) [nM] | inhibition at 0.004 µM (FLT3 (ITD)) [%] | inhibition at 0.123 µM (MNK2) [%] | inhibition at 0.111 µM (c-SRC) [%] | other results
0.26 ± 0.002 | CN1CCN(Cc2ccc(NC(=O)c3cccc(C#Cc4cnc5cccnn45)c3)cc2C(F)(F)F)CC1 [HSL331, 3-(Imidazo[1,2-b]pyridazin-3-ylethynyl)-N-(4-((4-methylpiperazin-1-yl)methyl)-3-(trifluoromethyl)phenyl)benzamide] | 0.63 ± 0.002 | 2.86 ± 0.04 |  |  |  | 
0.94 ± 0.002 | CN1CCN(Cc2ccc(NC(=O)c3cncc(C#Cc4cnc5cnccn45)c3)cc2C(F)(F)F)CC1 [HSL385, 5-(Imidazo[1,2-a]pyrazin-3-ylethynyl)-N-(4-((4-methylpiperazin-1-yl)methyl)-3-(trifluoromethyl)phenyl)nicotinamide] | 2.62 ± 0.06 | 17.2 ± 0.86 |  | 72 |  | 
1.83 ± 0.02 | CN1CCN(Cc2ccc(NC(=O)c3cncc(C#Cc4cncc5nccn45)c3)cc2C(F)(F)F)CC1 [HSL407, 5-(Imidazo[1,2-a]pyrazin-5-ylethynyl)-N-(4-((4-methylpiperazin-1-yl)methyl)-3-(trifluoromethyl)phenyl)nicotinamide] | 2.93 ± 0.04 | 49.7 ± 2.5 |  |  |  | 
28.1 ± 0.6 | CN1CCN(Cc2ccc(NC(=O)c3cncc(C#Cc4cnc5ccnn5c4)c3)cc2C(F)(F)F)CC1 [HSL412, N-(4-((4-Methylpiperazin-1-yl)methyl)-3-(trifluoromethyl)phenyl)-5-(pyrazolo[1,5-a]pyrimidin-6-ylethynyl)nicotinamide] | 28.1 ± 0.37 | > 100 |  |  |  | 

More lines, now with the values behind:

SMILES | IC50 (K562) [nM] | IC50 (KCL22) [nM] | IC50 (KCL22-IR) [nM] | inhibition at 0.004 µM (FLT3 (ITD)) [%] | inhibition at 0.123 µM (MNK2) [%] | inhibition at 0.111 µM (c-SRC) [%] | other results
CN1CCN(Cc2ccc(C(=O)Nc3cncc(C#Cc4cnc5cccnn45)c3)cc2C(F)(F)F)CC1 [HSL338, N-(5-(Imidazo[1,2-b]pyridazin-3-ylethynyl)pyridin-3-yl)-4-((4-methylpiperazin-1-yl)methyl)-3-(trifluoromethyl)benzamide] | 0.45 ± 0.002 | 1.4 ± 0.02 | 4.24 ± 0.05 | 84 |  |  | 
CN1CCN(Cc2ccc(NC(=O)c3cncc(C#Cc4cnc5ccccn45)c3)cc2C(F)(F)F)CC1 [HSL381, 5-(Imidazo[1,2-a]pyridin-3-ylethynyl)-N-(4-((4-methylpiperazin-1-yl)methyl)-3-(trifluoromethyl)phenyl)nicotinamide] | 0.57 ± 0.003 | 0.89 ± 0.005 | 4.24 ± 0.05 | 91 | 84 |  | inhibition at 0.123 µM (ABL1 (T315I)): 73%
CN1CCN(Cc2ccc(NC(=O)c3cncc(C#Cc4cnc5ncccn45)c3)cc2C(F)(F)F)CC1 [HSL382, 5-(Imidazo[1,2-a]pyrimidin-3-ylethynyl)-N-(4-((4-methylpiperazin-1-yl)methyl)-3-(trifluoromethyl)phenyl)nicotinamide] |  | > 100 | > 100 |  |  |  | IC50 against KCL22 (KCL22; CML cell line, 72 h treatment): inactive; IC50 against K562 (K562; CML cell line (ABL1), 72 h treatment): inactive; IC50 against KCL22-IR (KCL22-IR; imatinib-resistant CML line, 72 h treatment): inactive
Cc1ncc(C(=O)Nc2ccc(CN3CCN(C)CC3)c(C(F)(F)F)c2)cc1C#Cc1cnc2cccnn12 [HSL420, 5-(Imidazo[1,2-b]pyridazin-3-ylethynyl)-6-methyl-N-(4-((4-methylpiperazin-1-yl)methyl)-3-(trifluoromethyl)phenyl)nicotinamide] | 0.06 ± 0.002 | 0.06 ± 0.002 | 0.46 ± 0.01 |  |  | 32 | inhibition at 0.123 µM (ABL1 (T315I)): 83%
CN1CCN(Cc2ccc(NC(=O)c3cncc(C#Cc4cnc5cccnn45)c3)cc2C(F)(F)F)CC1 [HSN748, 5-(Imidazo[1,2-b]pyridazin-3-ylethynyl)-N-(4-((4-methylpiperazin-1-yl)methyl)-3-(trifluoromethyl)phenyl)nicotinamide] |  |  |  | 86 | 85 | < 10 | IC50 (MOLM14): 0.25 nM; inhibition at 0.111 µM (FLT3 (D835Y)): 87%; IC50 (c-Kit): 96 ± 4.21 nM
Cc1ccc(C(=O)Nc2ccc(CN3CCN(C)CC3)c(C(F)(F)F)c2)cc1C#Cc1cnc2cccnn12 [ponatinib, reference compound] | 0.6 ± 0.002 | 0.14 ± 0.003 | 0.66 ± 0.005 | < 40 | 32 | 98 | IC50 (LC2/Ad): 35.1 nM; IC50 (MV-4-11): 0.09 nM; IC50 (MOLM14): 0.45 nM; IC50 (MOLM13-res): 24.1 nM; IC50 (MOLM14-D835Y): 52.6 nM; IC50 (H520): 128 nM; IC50 (MOLM14-F691L): 6.8 nM
